Measurements from US7268152B2, “Glucocorticoid mimetics, methods of making them, pharmaceutical compositions, and uses thereof” (Boehringer Ingelheim Pharmaceuticals, Inc., priority 2002, dated 2007).
pIC50: −log10 of the molar value.

Experiments:
[1] = target: T1, human glucocorticoid receptor (GR) complex (Homo sapiens, UniProt P04150); experiment: Glucocorticoid receptor competitive binding assay (fluorescence polarization); settings: competition with TAMRA-labeled dexamethasone
T1 construct: made in house; host or cells: insect expression system (baculovirus lysate)
T1 sequence (P04150 1-777): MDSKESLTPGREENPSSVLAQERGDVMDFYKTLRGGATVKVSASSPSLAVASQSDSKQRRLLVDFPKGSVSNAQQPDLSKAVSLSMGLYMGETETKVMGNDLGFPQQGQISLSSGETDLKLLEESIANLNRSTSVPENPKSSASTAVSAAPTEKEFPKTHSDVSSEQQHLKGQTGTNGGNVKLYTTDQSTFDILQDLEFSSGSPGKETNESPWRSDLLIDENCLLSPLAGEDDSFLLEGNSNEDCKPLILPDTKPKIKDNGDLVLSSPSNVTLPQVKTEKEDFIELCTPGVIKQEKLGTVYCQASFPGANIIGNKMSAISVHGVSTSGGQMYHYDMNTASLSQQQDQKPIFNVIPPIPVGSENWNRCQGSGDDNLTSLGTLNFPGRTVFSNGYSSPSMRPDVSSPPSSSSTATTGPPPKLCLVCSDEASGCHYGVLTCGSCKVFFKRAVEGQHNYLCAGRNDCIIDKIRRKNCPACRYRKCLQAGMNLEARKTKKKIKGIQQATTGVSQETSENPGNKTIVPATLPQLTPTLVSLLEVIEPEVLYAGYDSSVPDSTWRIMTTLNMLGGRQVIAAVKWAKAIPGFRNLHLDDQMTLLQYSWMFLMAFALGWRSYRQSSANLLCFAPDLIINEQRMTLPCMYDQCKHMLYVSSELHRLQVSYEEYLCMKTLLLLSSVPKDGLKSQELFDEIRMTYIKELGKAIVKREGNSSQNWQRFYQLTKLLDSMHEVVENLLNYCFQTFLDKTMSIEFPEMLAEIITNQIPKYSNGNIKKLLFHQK
Procedure, shortened: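 FP competition against 15 nM TAMRA-labeled dexamethasone (stock added) for GR complex in baculovirus insect-cell lysate, buffer 10 mM TES, 50 mM KCl, 20 mM molybdate, pH 7.4 with 1 mM DTT. Incubated 1 h at room temperature, read at ex 550/em 580 nm; IC50 from 4-parameter logistic fit.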

[2] = test system: glucocorticoid receptor; experiment: One or more of the above assays (GR binding and GR cell assays; not specified which); format: cell-based; settings: in one or more of the above assays

Question: With `COc1ccc(F)cc1C(C)(C)CC(O)(Cc1cc(C)cc(C)c1C#N)C(F)(F)F` (stereo not drawn) [Example 32, 2-[4-(5-fluoro-2-methoxyphenyl)-2-hydroxy-4-methyl-2-trifluoromethylpentyl]-4,6-dimethylbenzonitrile] as the compound, how does the melting point read?
Answer: 134 to 136 °C

Question: With `COc1ccc(F)cc1C(C)(C)CC(O)(Cc1ccc(C#N)cc1Cl)C(F)(F)F` (stereo not drawn) [3-Chloro-4-[4-(5-fluoro-2-methoxyphenyl)-2-hydroxy-4-methyl-2-trifluoromethylpentyl]benzonitrile] as the compound, how does the pIC50 [1] read?
Answer: ≥ 7.00

Question: And the “activity as agonists of the glucocorticoid receptor function” value [2]?
Answer: activity as agonists
